US20240043450A1, “NEW COMPOUND” (JANSSEN PHARMACEUTICA NV, priority 2020, published 2024)

Legend:
[1] = target: T1, NLRP3 (Homo sapiens, UniProt Q96P20); test: PBMC assay: IL-1β levels in supernatant of LPS-stimulated human PBMCs (MSD); assay type: cell-based; settings: 30 min compound pre-incubation, 100 ng/ml LPS for 6 hrs, IL-1β in supernatant, read-out: IL-1B IC50
T1 construct: human peripheral blood mononuclear cells (PBMCs) were isolated from blood; endogenous in cells; host or cells: primary human PBMCs from healthy donors
Description: The activity of a compound according to the present invention can be assessed by in vitro methods.
Peripheral venous blood was collected from healthy individuals and human peripheral blood mononuclear cells (PBMCs) were isolated from blood by Ficoll-Histopaque (Sigma-Aldrich, A0561) density gradient centrifugation. After isolation, PBMCs were stored in liquid nitrogen for later use. Upon thawing, PBMC cell viability was determined in growth medium (RPMI media supplemented with 10% fetal bovine serum, 1% Pen-Strep and 1% L-glutamine). […] PBMCs were added at a density of 7.5×10^4 cells per well and incubated for 30 min in a 5% CO2 incubator at 37° C. LPS stimulation was performed by addition of 100 ng/ml LPS (final concentration, Invivogen, tlrl-smlps) for 6 hrs followed by collection of cellular supernatant and the analysis of IL-1β […] and TNF cytokines levels […] via MSD technology according to manufacturers' guidelines (MSD, K15A0H).

[2] = tested on: TNF; test: PBMC assay: TNF cytokine levels in supernatant of LPS-stimulated human PBMCs (MSD); assay type: cell-based; settings: 30 min compound pre-incubation, 100 ng/ml LPS for 6 hrs
Description: Peripheral venous blood was collected from healthy individuals and human peripheral blood mononuclear cells (PBMCs) were isolated from blood by Ficoll-Histopaque (Sigma-Aldrich, A0561) density gradient centrifugation. After isolation, PBMCs were stored in liquid nitrogen for later use. Upon thawing, PBMC cell viability was determined in growth medium (RPMI media supplemented with 10% fetal bovine serum, 1% Pen-Strep and 1% L-glutamine). Compounds were spotted in a 1:3 serial dilution in DMSO and diluted to the final concentration in 30 μl medium in 96 well plates (Falcon, 353072). PBMCs were added at a density of 7.5×10^4 cells per well and incubated for 30 min in a 5% CO2 incubator at 37° C. LPS stimulation was performed by addition of 100 ng/ml LPS (final concentration, Invivogen, tlrl-smlps) for 6 hrs followed by collection of cellular supernatant and the analysis of IL-1β […] and TNF cytokines levels […] via MSD technology according to manufacturers' guidelines (MSD, K15A0H).
The IC50 values (for IL-1β) and EC50 values (TNF) were obtained on compounds of the invention/examples, and are depicted in the following table: […]

T1 sequence (Q96P20 whole entry): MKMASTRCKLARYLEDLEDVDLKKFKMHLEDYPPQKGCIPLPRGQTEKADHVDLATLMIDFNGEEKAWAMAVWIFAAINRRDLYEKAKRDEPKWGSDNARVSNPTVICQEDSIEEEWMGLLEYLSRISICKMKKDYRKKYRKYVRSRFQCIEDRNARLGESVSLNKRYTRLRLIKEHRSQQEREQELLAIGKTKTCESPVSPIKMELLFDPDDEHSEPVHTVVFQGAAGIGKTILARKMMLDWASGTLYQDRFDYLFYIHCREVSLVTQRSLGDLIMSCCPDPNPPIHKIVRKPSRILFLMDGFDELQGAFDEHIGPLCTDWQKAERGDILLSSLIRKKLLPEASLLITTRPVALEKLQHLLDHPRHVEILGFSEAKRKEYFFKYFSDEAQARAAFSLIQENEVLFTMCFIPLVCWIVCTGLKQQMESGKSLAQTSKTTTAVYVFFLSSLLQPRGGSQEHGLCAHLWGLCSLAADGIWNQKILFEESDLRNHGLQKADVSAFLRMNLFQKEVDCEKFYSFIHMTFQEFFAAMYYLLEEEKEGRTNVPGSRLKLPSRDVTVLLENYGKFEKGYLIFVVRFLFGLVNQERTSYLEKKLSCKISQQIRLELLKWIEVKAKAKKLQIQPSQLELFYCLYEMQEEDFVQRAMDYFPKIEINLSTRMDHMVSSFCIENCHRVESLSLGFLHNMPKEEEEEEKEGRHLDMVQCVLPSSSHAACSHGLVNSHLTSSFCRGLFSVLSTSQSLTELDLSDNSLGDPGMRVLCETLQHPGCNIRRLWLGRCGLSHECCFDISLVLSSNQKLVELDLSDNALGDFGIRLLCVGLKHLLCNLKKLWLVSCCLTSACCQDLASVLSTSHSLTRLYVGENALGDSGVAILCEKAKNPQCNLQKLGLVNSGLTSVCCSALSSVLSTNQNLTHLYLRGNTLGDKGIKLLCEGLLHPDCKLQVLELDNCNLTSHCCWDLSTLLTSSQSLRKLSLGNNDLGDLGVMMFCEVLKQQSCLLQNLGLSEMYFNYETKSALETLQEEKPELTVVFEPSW

IC50 [1] [nM]	EC50 ([2]; Homo sapiens, PBMC) [nM]	melting point [°C]	EC50 [2] [nM]	SMILES
6600	> 20000			Cc1nnc2n1C[C@H](NC(=O)Cn1nc(C(C)C)c3nc(C4CC4)sc3c1=O)CC2 (single isomer, unassigned) [F-32]
300	> 20000			Cc1nnc2n1C[C@@H](NC(=O)Cn1nc(C(C)C)c3nc(C4CC4)sc3c1=O)CC2 (single isomer, unassigned) [F-33]
105	19700			CC(C)c1nn(CC(=O)Nc2ccncn2)c(=O)c2sc(C3CC3)nc12 [F-1, 2-(2-cyclopropyl-4-isopropyl-7-oxo-thiazolo[4,5-d]pyridazin-6-yl)-N-pyrimidin-4-yl-acetamide]
105	5590			CC(C)c1nc2c(C(C)C)nn(CC(=O)Nc3ccncn3)c(=O)c2s1 [F-2]
181	7180			CC(C)c1nc2c(C(C)C)nn(CC(=O)Nc3ccnnc3)c(=O)c2s1 [F-3]
50	11500			CC(C)c1nc2c(C(C)C)nn(CC(=O)Nc3ccc4nncn4c3)c(=O)c2s1 [F-4]
156	> 20000			CC(C)c1nc2c(C(C)C)nn(CC(=O)N[C@H]3C[C@@](C)(O)C3)c(=O)c2s1 [F-5]
258	> 20000			CC(C)c1nc2c(N(C)C)nn(CC(=O)N[C@H]3C[C@@](C)(O)C3)c(=O)c2s1 [F-6]
169	> 20000			CC(C)c1nc2c(N(C)C)nn(CC(=O)Nc3ccc4nncn4c3)c(=O)c2s1 [F-7]
181	9200	186		CCc1nc2c(C(C)C)nn(CC(=O)Nc3ccncn3)c(=O)c2s1 [F-8, 2-(2-ethyl-4-isopropyl-7-oxo-thiazolo[4,5-d]pyridazin-6-yl)-N-pyrimidin-4-yl-acetamide]
95	18000	284.6		CCc1nc2c(C(C)C)nn(CC(=O)Nc3ccc4nncn4c3)c(=O)c2s1 [F-9]
274	18600	186.5		CCc1nc2c(C(C)C)nn(CC(=O)Nc3ccnnc3)c(=O)c2s1 [F-10]
351	19400	159.2		CCc1nc2c(C(C)C)nn(CC(=O)N[C@H]3C[C@@](C)(O)C3)c(=O)c2s1 [F-11]
23	4990			CC(C)c1nn(CC(=O)Nc2ccc3nncn3c2)c(=O)c2sc(C3CC3)nc12 [F-12]
100	6590	195.2		CC(C)c1nn(CC(=O)Nc2ccnnc2)c(=O)c2sc(C3CC3)nc12 [F-13]
55	18200	190.5		CC(C)c1nn(CC(=O)N[C@H]2C[C@@](C)(O)C2)c(=O)c2sc(C3CC3)nc12 [F-14]
26	7900			CC(C)c1nn(CC(=O)Nc2ccc3c(c2)[nH]c(=O)n3C)c(=O)c2sc(C3CC3)nc12 [F-15]
81		233.3		CC(C)c1nn(CC(=O)Nc2ccc(=O)n(C)n2)c(=O)c2sc(C3CC3)nc12 [F-16]
	12500	206		CC(C)c1nn(CC(=O)Nc2ccn3cnnc3c2)c(=O)c2sc(C3CC3)nc12 [F-17]
128	> 20000	216.6		CCNc1nc2c(C(C)C)nn(CC(=O)N[C@H]3C[C@@](C)(O)C3)c(=O)c2s1 [F-18]
100	> 20000			CC(C)c1nn(CC(=O)Nc2ccc3nncn3c2)c(=O)c2sc(C3CC3(F)F)nc12 (centres unmarked) [F-20]
469	> 20000	181.4		CC(C)c1nn(CC(=O)N[C@H]2C[C@@](C)(O)C2)c(=O)c2sc(C(F)(F)F)nc12 [F-21]
332	> 20000	261.8		CC(C)c1nn(CC(=O)Nc2ccc3nncn3c2)c(=O)c2sc(C(F)(F)F)nc12 [F-22]
89	> 20000			CC(C)c1nn(CC(=O)Nc2ccc3nncn3c2)c(=O)c2sc(C(C)(F)F)nc12 [F-23]

IC50 [1] [nM]	EC50 ([2]; Homo sapiens, PBMC) [nM]	melting point [°C]	EC50 [2] [nM]	SMILES
567	> 20000	151.3		CC(C)c1nn(CC(=O)Nc2ccc3nncn3c2)c(=O)c2sc(C3COC3)nc12 [F-24]
715	~12600	219.9		Cn1nc(NC(=O)Cn2nc(C3CC3)c3nc(C4CC4)sc3c2=O)ccc1=O [F-25]
126	10800	285		O=C(Cn1nc(C2CC2)c2nc(C3CC3)sc2c1=O)Nc1ccc2nncn2c1 [F-26]
780	> 20000	198.2		C[C@]1(O)C[C@@H](NC(=O)Cn2nc(C3CC3)c3nc(C4CC4)sc3c2=O)C1 [F-27]
97	6360	195.8		CC(C)c1nn(CC(=O)Nc2ccc3cncn3c2)c(=O)c2sc(C3CC3)nc12 [F-28]
155	12300	215.5		CC(C)c1nn(CC(=O)Nc2ccn3ccnc3c2)c(=O)c2sc(C3CC3)nc12 [F-29]
237	19600	204.6		Cc1nc2ccc(NC(=O)Cn3nc(C(C)C)c4nc(C5CC5)sc4c3=O)cn2n1 [F-30]
407	> 20000			Cc1nnc2n1CC(NC(=O)Cn1nc(C(C)C)c3nc(C4CC4)sc3c1=O)CC2 (centres unmarked) [F-31]
692	8260	258		CC(C)c1nn(CC(=O)Nc2ccn3ccnc3n2)c(=O)c2sc(C3CC3)nc12 [F-34]
1190	> 20000	282.4		Cc1nnc2cc(NC(=O)Cn3nc(C(C)C)c4nc(C5CC5)sc4c3=O)ccn12 [F-35]
72	15900			CC(C)c1nn(CC(=O)Nc2ccc3nccn3c2)c(=O)c2sc(C3CC3)nc12 [F-36]
247	> 20000	147.1		CC(C)c1nn(CC(=O)Nc2cnc3nccn3c2)c(=O)c2sc(C3CC3)nc12 [F-37]
354	15700	203.8		CC(C)c1nn(CC(=O)Nc2ccn3ncnc3c2)c(=O)c2sc(C3CC3)nc12 [F-38]
446	13100	216.3		CC(C)c1nn(CC(=O)Nc2ccc3nnc(C(F)F)n3c2)c(=O)c2sc(C3CC3)nc12 [F-39]
		299.1	> 20000	CC(C)c1nn(CC(=O)Nc2ccn3cnnc3c2)c(=O)c2sc(C3CC3)nc12 [F-40]
265	> 20000	280.9		CC(C)c1nn(CC(=O)Nc2cc(Br)c3nncn3c2)c(=O)c2sc(C3CC3)nc12 [F-41, N-(8-bromo-[1,2,4]triazolo[4,3-a]pyridin-6-yl)-2-(2-cyclopropyl-4-isopropyl-7-oxothiazolo[4,5-d]pyridazin-6(7H)-yl)acetamide]
188	> 20000			CC(C)c1nn(CC(=O)Nc2ccc3nc(C#N)cn3c2)c(=O)c2sc(C3CC3)nc12 [F-42]
102	9620	194.9		CC(C)c1nn(CC(=O)Nc2ccc3ncoc3c2)c(=O)c2sc(C3CC3)nc12 [F-43]
2310	> 20000			CC(C)c1nn(CC(=O)Nc2cnc3ccnn3c2)c(=O)c2sc(C3CC3)nc12 [F-44]
1240	~19600			CC(C)c1nn(CC(=O)Nc2ccn3c(F)cnc3c2)c(=O)c2sc(C3CC3)nc12 [F-47]
286	> 20000			CC(C)c1nn(CC(=O)Nc2ccc3nnc(Cl)n3n2)c(=O)c2sc(C3CC3)nc12 [F-51]
56	18600			CC(C)c1nn(CC(=O)Nc2ccc3nncn3n2)c(=O)c2sc(C(C)(F)F)nc12 [F-52, N-([1,2,4]triazolo[4,3-b]pyridazin-6-yl)-2-(2-(1,1-difluoroethyl)-4-isopropyl-7-oxothiazolo[4,5-d]pyridazin-6(7H)-yl)acetamide]
224	19800			CC(C)c1nn(CC(=O)Nc2ccc3nc(C(F)(F)F)cn3c2)c(=O)c2sc(C3CC3)nc12 [F-58]
316	> 20000			CC(C)c1nn(CC(=O)Nc2cc(C#N)c3nncn3c2)c(=O)c2sc(C3CC3)nc12 [F-60, N-(8-cyano-[1,2,4]triazolo[4,3-a]pyridin-6-yl)-2-(2-cyclopropyl-4-isopropyl-7-oxothiazolo[4,5-d]pyridazin-6(7H)-yl)acetamide]
